In article PMC12668308, “A Novel Antimalarial Agent that Inhibits Protein Synthesis in Plasmodium falciparum” (Angewandte Chemie (International Ed. in English), 2025):
Read-outs that look alike come from different tables or passages of the source.

Key:
[1] = system: cytosolic ribosomal subunits; experiment: iSPP assay, P. falciparum lysate; type: binding, Plasmodium falciparum; conditions: lysate incubated with 100 µM; 104 stabilized proteins in total for 31
Description: To further elucidate the MoA of 31, an integral solvent‐induced protein precipitation (iSPP) assay was employed as recently described.^[ [26] ^] iSPP utilizes a solvent mixture (acetone/ethanol/acetic acid) to induce protein denaturation, allowing the detection of drug‐protein interactions by quantitative mass spectrometry based on changes in protein stability due to compound binding using cellular lysates from in vitro blood‐stage P. falciparum parasites.
P. falciparum NF54 lysates were extracted as described in ^[26^] . The parasite asynchronous culture was extracted once 3-5% parasitemia was reached. Saponin lysis was done as described in 2.2.10. […] The soluble protein fraction (supernatant) was collected and the protein content was quantified using the BCA assay (Pierce™ BCA Protein Assay Kit, Thermo Fisher Scientific). […]
The raw LFQ-DIA intensity values of biological replicates across all conditions were normalized to the median abundance using Excel. […] Dose-dependent curves were generated using normalized protein intensity values, expressed as a ratio to the vehicle control. […]

[2] = system: P. falciparum NF54 strain; experiment: [3H]-hypoxanthine incorporation assay, asexual blood stage; type: cell-based, Plasmodium falciparum
In short: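 Parasites in human RBC were exposed to a 6-step twofold compound dilution in hypoxanthine-free medium (final parasitemia 0.3%, haematocrit 1.25%) at 37 °C under 3% O2/4% CO2. After 48 h, [3H]-hypoxanthine (0.25 µCi/well) was added for 24 h and uptake measured by scintillation counting. IC50 came from four-parameter curve fitting.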

[3] = system: ATP-dependent zinc metalloprotease FTSH (W7JKR1); experiment: iSPP profiling, P. falciparum lysate; type: binding, Plasmodium falciparum
Procedure: (§1) P. falciparum NF54 lysates were extracted as described in ^[26^] . The parasite asynchronous culture was extracted once 3-5% parasitemia was reached. Saponin lysis was done as described in 2.2.10. Once the parasite pellet was obtained, 2.5 volumes of ice-cold lysis buffer (50 mM Tris/HCl pH 7.5 (Avantor), 5% glycerol (Sigma-Aldrich), 150 mM NaCl (Carl Roth), 1.5 mM MgCl2 (Sigma-Aldrich), 1 mM DTT (Carl Roth), 0.8% IGEPAL CA-630 (Sigma-Aldrich), 1X Halt Protease and Phosphatase Inhibitor-Cocktails EDTA-free (Thermo Fisher Scientific)) was added to the parasite pellet. The lysate solution was subjected to three cycles of flash freeze-thaw with liquid nitrogen and ddH2O at RT. The lysates were centrifuged at 20,000 g for 20 minutes at 4 °C. The soluble protein fraction (supernatant) was collected and the protein content was quantified using the BCA assay (Pierce™ BCA Protein Assay Kit, Thermo Fisher Scientific). The lysate was stored at -80 °C until further use.
(§2) The P. falciparum lysate was thawed on ice and diluted to 0.8 mg/mL. […] Subsequently, the samples were incubated at room temperature for 30 minutes using a rotating mixer. After distribution into a 96-well plate, the samples were treated with increasing concentrations of A.E.A. (v/v) ranging from 14% to 28% (14, 16, 18, 20, 22, 24, 26, and 28%). Following a 20-minute incubation at 37°C with shaking at 750 rpm, the samples were centrifuged at 4400 g for 35 minutes to remove precipitated proteins. The soluble fractions were then pooled in equal volumes into a single sample using the Bravo Automated Liquid Handling Platform. The pooled samples were subsequently prepared for LC-MS/MS analysis.
(§3) The raw LFQ-DIA intensity values of biological replicates across all conditions were normalized to the median abundance using Excel. The normalized values were then log2 transformed in Perseus (v2.0.10.0).^[58^] Missing values were imputed from a normal distribution (width 0.3, down shift 1.5), and p-values were obtained using a two-sample t-test over replicates with a permutation-based false discovery rate correction (FDR 0.05). Volcano plots were generated in RStudio using the EnhancedVolcano package (v. 1.20.0), ^[59^] plotting proteins by statistical significance (y-axis: –Log10 p-value) versus the magnitude of change (x-axis: log2 fold change of protein intensities for each compound condition relative to the vehicle control). The heatmap was generated in Perseus (v2.0.10.0). Dose-dependent curves were generated using normalized protein intensity values, expressed as a ratio to the vehicle control. Plots were created in GraphPad Prism (v8.3.0) using a nonlinear regression model.

[4] = system: 60S ribosomal protein L4 (W7KB54); experiment: iSPP profiling, P. falciparum lysate; type: binding, Plasmodium falciparum
Procedure: as §1, §2, §3

[5] = Plasmodium falciparum, NF54, asexual blood stage, mean ± s.d., read-out: PfNF54 IC50 ± s.d.

SMILES | significantly stabilized proteins belonging to cytosolic ribosomal subunits [1] | IC50 ratio relative to NF54 strain ([2]; NF54) | IC50 ([2]; Plasmodium falciparum, NF54, 72 h, Table S2, NF54 sensitive strain, 72-h assay, mean±s.d., read-out: IC50) [nM] | IC50 [2, 5] [nM] | IC50 ([2]; asexual blood stage, mean ± s.d., read-out: PfNF54 IC50 ± s.d.) [nM] | log2FC ([3]; 10 µM) | log2FC ([3]; 50 µM) | log2FC ([3]; 100 µM) | log2FC ([3]; 10^-2 µM) | log2FC ([3]; 10^-3 µM) | log2FC ([4]; 10 µM) | log2FC ([4]; 50 µM) | log2FC ([4]; 100 µM) | log2FC ([4]; 10^-2 µM) | log2FC ([4]; 10^-3 µM) | fold lower activity (control compound vs 31) ([2]; PfNF54 IC50) [fold]
CN1CCN(Cc2ccc(O)c(NC(=O)c3cccc(Oc4cc(C(F)(F)F)ccn4)c3)c2)CC1 [Compound 31, N-(2-hydroxy-5-((4-methylpiperazin-1-yl)methyl)phenyl)-3-((4-(trifluoromethyl)pyridin-2-yl)oxy)benzamide] | 12 | 1.00 | 1.8 ± 0.3 | < 5 | 3.9 | 0.49 | 0.64 | 0.46 | 0.46 | 0.20 | 0.49 | 0.63 | 0.50 | 0.41 | 0.21 | –
O=C(Nc1cc(CN2CCOCC2)ccc1F)c1cccc(Oc2cc(C(F)(F)F)ccn2)c1 [Compound 34, N-(2-Fluoro-5-(morpholinomethyl)phenyl)-3-((4-(trifluoromethyl)pyridin-2-yl)oxy)benzamide] | failed to stabilize any cytosolic ribosomal proteins | – | – | 3730 | – | – | – | – | – | – | – | – | – | – | – | 1000
